Measured values taken from patent US12233077B2, “Therapeutic treatment of breast cancer based on c-MAF status” (INBIOMOTION S.L., priority 2017, dated 2025).

Experiments:
[1] = tested on: breast cancer patients (AZURE trial); test: AZURE trial, zoledronic acid treatment effect according to MAF FISH stratification (Example 2); type: in vivo, human; settings: for HR, risk of bone metastasis (anytime), zoledronic acid treatment / HR, bone metastatic event (anytime), zoledronic acid treatment: cutoff 2.5
Text: The MAF FISH assay was produced by Kreatech for Inbiomotion based on Kreatech proprietary FISH technology. The probe set contains two probes: a MAF 16q23 probe plus a D16Z3 probe as control of chromosome 16 centromeric region. The assay was validated using a 16q23/D16Z3 probe (Inbiomotion) and Poseidon Tissue Digestion Kit from Kreatech. The scoring criteria were defined in a fact sheet and as follows: two FISH evaluable results per patient, and the highest value was selected. The scoring algorithm was as follows: 20 cells counted for target and centromere amplification, if the gene count is >2 and ≤3, then 50 cells were counted.
An overview of the AZURE clinical trial (Coleman et al N Eng J Med 2011; 365: 1396-1405 and AZURE Current Controlled Trials number, ISRCTN79831382 and ClinicalTrials.gov identifier NCT00072020) study design, whose patients were used to validate MAF, is provided in FIG. 2. MAF was validated in a retrospective analysis of the AZURE trial using patient tumor sample prospectively collected under regulatory compliant conditions. Out of the 3,360 patients recruited, 1,769 donated tumor tissue (52.4%). There were 13 TMAs (tissue micro array) (150 patient samples each) (1,769 patients). There were 4 replicas of each TMA using different tissue cores (6,326 (4× patient)). One TMA had only 1 replica and two TMAs had three replicas. Based on the H&E analysis (hematoxylin and eosin) (FIG. 3) (6,326): 3,978 cores were evaluable (63%) and 2,348 were nonevaluable.
For the FISH assay, there were 2,067 FISH evaluable cores (56%). […] 567 patients were nonevaluable by FISH in any of the 4 replicas (32%).
With regard to molecular variables, for FISH analysis: MAF copy number: numerical and categorical (+/−cut-off>=2.5) variable; % of nucleic MAF amplified (MAF CN>2):numberical+categorical (cut-off TBD). For the IHC analysis: IHC H-Score: numerical+categorical (cut-off>=200), IHC OD: numerical+categorical (cut-off tBD). The following clinical variables were analyzed: disease-free survival (DFS), invasive disease-free survival (IDFS), overall survival (OS), first recurrence in bone, bone recurrence at any time, time to first DFS event in bone, time to first DFS event not in bone, response to zoledronic acid treatment.
In analyzing the MAF FISH prognostic value, the patients from the control and treatment arms were pooled for the initial analysis. Optimized cut-offs for each variable to be analyzed were used when indicated. Death as a competing event was used in time to bone metastasis, anytime. The following clinical variables were analyzed: time to bone metastasis (anytime), time to bone metastasis (as first event), IDFS (including ipsilateral invasive breast tumor recurrence, regional invasive breast cancer recurrence, metastatic disease-breast cancer, death attributable to any cause, including breast cancer, contralateral invasive breast cancer, second primary non-breast invasive cancer), and overall survival.
The control and zoledronic acid treatment arms from the AZURE study described in Example 1 were evaluated to determine the effect of zoledronic acid treatment on MAF-stratified patients.

[2] = tested on: patients with invasive stage II or III breast cancer (AZURE trial); test: AZURE trial, effect of MAF amplification on treatment outcomes with adjuvant zoledronic acid (Example 3); type: in vivo, human
Text: 3,360 patients from 174 centers worldwide were recruited to the AZURE trial between Sep. 4, 2003, and Feb. 16, 2006. Eligible patients had histologically confirmed invasive stage II or III breast cancer of any subtype, with either pathologically involved axillary lymph node metastasis or a T3 or T4 primary tumor treated with curative intent and complete resection of the primary tumor (or planned resection if patients were being treated with neoadjuvant chemotherapy). Other inclusion criteria were age 18 years or older, Karnofsky performance status score 80 or more, and not being pregnant or breastfeeding. Patients were excluded if they had clinical or imaging evidence of distant metastases, current or recent (<1 year) use of bisphosphonates, or pre-existing bone disease likely to require bone-targeted treatment. All patients gave written informed consent. In the UK, patients also provided voluntary specific consent for use of biological materials (primary tumor and blood samples). Before randomization, patients underwent hematological, renal, hepatic function, and staging imaging tests according to institutional protocols. Those confirmed to be eligible were randomly assigned (1:1) to standard adjuvant systemic treatment alone or with zoledronic acid from a central computer-generated schedule held at the Clinical Trials Research Unit, University of Leeds, Leeds, UK. A minimization process that took into account the number of involved axillary lymph nodes, clinical tumor stage, estrogen receptor status, type and timing of systemic therapy, menopausal status, statin use, and treating center was used.
Patients received standard systemic therapy with (neo-) adjuvant chemotherapy, endocrine therapy, or both, alone (control group) or with 4 mg zoledronic acid given intravenously every 3-4 weeks for the first six doses, every 3 months for eight doses, and every 6 months for five doses to complete 5 years of treatment (zoledronic acid group). Oral calcium and vitamin D supplements were recommended for all patients in the first 6 months of treatment, and continued thereafter at the discretion of the treating physician. Adjuvant systemic treatments and locoregional radiotherapy were used in accordance with the standard protocols of each participating institution.
The follow-up schedule was similar in both study groups, and included clinical assessments, monitoring of adverse events, and hematological, renal, and hepatic function tests. Routine follow-up imaging was not mandated, but investigations were done for clinically suspected recurrence if deemed appropriate by the treating physician. Recurrence was defined by the date on which it was first suspected, to reduce the risk of ascertainment bias. 91% of recurrences were independently validated by either on-site or telephone based monitoring. After treatment with zoledronic acid was completed, patients were followed up annually for disease and safety endpoints.
5 μm thick slices were cut from each TMA block and oriented to match the TMA map to allow identification of each tissue core. The slices were mounted onto Superfrost plus glass slides (Thermo Fisher Scientific, Waltham, MA, USA) and stained with hematoxylin and eosin to confirm the presence of assessable tumor. MAF amplification was assessed with the validated MAFTEST fluorescence in situ hybridization (FISH) with the MAF/D16Z3 probe (Inbiomotion, Barcelona, Spain). A central laboratory (Targos Molecular Pathology, Kassel, Germany) validated the analytical and diagnostic performance of the assay, established acceptance criteria, included appropriate quality controls for each assay, and performed the analyses masked to treatment assignment. Briefly, TMA sections were rehydrated in ethanol series, washed with water, and pretreated at 98° C. for 15 min. Samples were digested with pepsin in a Poseidon Tissue Digestion Kit (Kreatech, Amsterdam, Netherlands) for 30 min, dehydrated in ethanol series, and dried. […]

[3] = zoledronic acid group (420 patients), median follow-up 84·6 months

O=P(O)(O)C(O)(Cn1ccnc1)P(=O)(O)O [zoledronic acid]
HR, risk of bone metastasis (anytime), zoledronic acid treatment ([1]; MAF FISH not positive patients, death as competing event, p=0.03): 0.65
HR, overall survival outcome, zoledronic acid treatment ([1]; MAF negative post menopausal patients, 95% CI 0.31-1.01): 0.56
HR, DFS outcome, zoledronic acid treatment ([1]; MAF negative post menopausal patients, 95% CI 0.33-0.95): 0.56
HR, bone metastatic event (anytime), zoledronic acid treatment ([1]; MAF non-positive non-post-menopausal patients, p=0.08): 0.66
HR, bone metastatic event (anytime), zoledronic acid treatment ([1]; MAF non-positive postmenopausal patients, limited number of events): 0.63
HR, bone metastatic event (anytime), zoledronic acid treatment ([1]; MAF positive non-post-menopausal patients, p=0.045): 2.44
HR, risk of bone metastasis (anytime), zoledronic acid treatment ([1]; MAF positive patients, death as competing event, non-significant, p=0.22): 1.54
HR, bone metastatic event (anytime), zoledronic acid treatment ([1]; MAF positive postmenopausal patients, p=0.26, limited number of events): 0.46
HR, risk of bone metastasis at any time ([1]; zoledronic acid arm, MAF FISH not positive (<2.3) compared to MAF FISH positive, death as competing event, p=0.01): 0.52
HR, time to recurrence (invasive disease) ([1]; zoledronic acid treatment arm, by MAF FISH status (positive >=2.2), multivariate analysis, p<0.001): 0.52
effect on extraskeletal recurrence ([2]; MAF-negative tumors, nonpostmenopausal at start of treatment): No effect
patients who died ([2]; MAF-negative tumors, zoledronic acid group (321 patients)): 18%
number of events, invasive-disease-free survival ([2]; MAF-negative, non-postmenopausal zoledronic acid group (216 patients)): 216 (61)
number of events, invasive-disease-free survival ([2]; MAF-negative, postmenopausal zoledronic acid group (105 patients)): 105 (29)
patients who died ([2]; MAF-positive tumors, non-postmenopausal at start of treatment, zoledronic acid group (66 patients)): 36%
patients who died ([2]; MAF-positive tumors, postmenopausal, zoledronic acid group (33 patients)): 30%
patients who died ([2]; MAF-positive tumors, zoledronic acid group (99 patients)): 34%
number of events, invasive-disease-free survival ([2]; MAF-positive, non-postmenopausal zoledronic acid group (66 patients)): 66 (33)
number of events, invasive-disease-free survival ([2]; MAF-positive, postmenopausal zoledronic acid group (33 patients)): 33 (12)
patients with an extraskeletal invasive-disease-free survival event ([2]; zoledronic acid group): 98
patients who had died [2, 3]: 91
patients with a first event in bone [2, 3]: 21
patients with an invasive-disease-free survival event [2, 3]: 135
number of events, invasive-disease-free survival ([2]; zoledronic acid group, <50 years, MAF-negative (142 patients)): 41
number of events, invasive-disease-free survival ([2]; zoledronic acid group, <50 years, MAF-positive (44 patients)): 23
number of events, invasive-disease-free survival ([2]; zoledronic acid group, ≥50 years, MAF-negative (179 patients)): 49
number of events, invasive-disease-free survival ([2]; zoledronic acid group, ≥50 years, MAF-positive (55 patients)): 22
